# Literature values as cited in patent US10292953B2 (priority 2013, dated 2019).
# Like-named read-outs stand apart in the source and are kept apart here.
# Key:
# ulceration of the cornea = conditions: 1% topical solution, rabbits with ulceration of the cornea
# porcine cornea = conditions: solution, in vitro
# corneal pain [1] = conditions: dogs, aqueous solution of 1%, topical ocular
# corneal pain [2] = conditions: cats, aqueous solution of 1%, topical ocular
smiles,measurement,setting,value
Oc1ccc2c3c1O[C@H]1[C@@H](O)CC[C@@]4(O)[C@@H](C2)N(CC2CCC2)CC[C@]314 [nalbuphine],analgesic efficacy,ulceration of the cornea,Neither did the opioid semi-synthetic nalbuphine applied in the form of 1% topical solution demonstrate analgesic efficacy
CC(C)Cc1ccc(C(C)C(=O)O)cc1.NCCCC[C@H](N)C(=O)O (centres unmarked),effect on integrity of the cornea,porcine cornea,adversely affected the integrity of the cornea
CC(C)Cc1ccc(C(C)C(=O)O)cc1.N=C(N)NCCC[C@H](N)C(=O)O (centres unmarked),effect on integrity of the cornea,porcine cornea,adversely affected the integrity of the cornea
CN1CC[C@]23c4c5ccc(O)c4O[C@H]2[C@@H](O)C=C[C@H]3[C@H]1C5 [morphine],analgesic effects in treatment of corneal pain,corneal pain [1],did not demonstrate analgesic effects
same,analgesic effects in treatment of corneal pain,corneal pain [2],did not demonstrate analgesic effects
